Columns and labels:
[1] = test system: D3 and D2 receptors; assay: Effect on pramipexole-induced yawning in rats; type: in vivo, rat; conditions: 30-min pretreatment; 38/52 […], SB-277011A 32 mg/kg, L-741,626 1.0 mg/kg
Experimental: (§1) Male Sprague-Dawley rats (Harlan; Indianapolis, Ind.) weighing 250-300 g were housed three to a cage for yawning studies, and one to a cage for hypothermia studies, and maintained on a 12-h dark/light cycle with lights on at 7:00 AM in a temperature (21-23° C.) and humidity controlled environment with free access to standard Purina rodent chow and water. […] All drugs were administered subcutaneously (s.c.) in a volume of 1 ml/kg.
(§2) Observation of yawning behavior began immediately after each injection, and the total number of yawns was recorded for 60 min thereafter.
(§3) Dose-response curves for the induction of yawning and hypothermia were determined with 6 rats per group, and results expressed as the mean number of yawns, or change in body temperature 60 min post agonist injection compared to the body temperature 1 min prior to the agonist injection±standard error of the mean (SEM).

[2] = target: T1, D3 dopamine receptors (Rattus norvegicus, UniProt P19020); assay: [3H]R(+)-7-OH-DPAT binding assay, rat ventral striatum membranes; conditions: rat brain; for Ki: mean ± SEM of 3-6 determinations; for Selectivity D1-like/D3 / Selectivity D2-like/D3: ratio of Ki values
T1 construct: Rat ventral striatum (nucleus accumbens and olfactory tubercles) was prepared in assay buffer; tissue Pel-Freez, Rogers, Ark; host or cells: rat ventral striatum (nucleus accumbens and olfactory tubercles) membranes
T1 sequence (P19020 whole entry): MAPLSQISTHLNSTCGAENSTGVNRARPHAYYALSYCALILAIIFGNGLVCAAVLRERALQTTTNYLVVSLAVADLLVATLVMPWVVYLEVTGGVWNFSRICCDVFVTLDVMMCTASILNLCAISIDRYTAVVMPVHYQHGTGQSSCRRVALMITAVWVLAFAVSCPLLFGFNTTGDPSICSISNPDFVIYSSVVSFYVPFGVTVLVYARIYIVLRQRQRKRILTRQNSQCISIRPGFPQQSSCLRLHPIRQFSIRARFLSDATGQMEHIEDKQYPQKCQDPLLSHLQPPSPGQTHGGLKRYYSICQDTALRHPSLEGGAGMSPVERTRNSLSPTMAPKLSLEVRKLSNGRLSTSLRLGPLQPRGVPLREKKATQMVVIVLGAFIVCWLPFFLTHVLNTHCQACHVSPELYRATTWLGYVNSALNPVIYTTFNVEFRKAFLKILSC
Experimental: All the synthesized compounds were determined for the binding affinities at the D3, D1-like and D2-like receptors in membranes prepared from the brains of adult, male Sprague-Dawley rats (Pel-Freez, Rogers, Ark.). All compounds were dissolved in 100% EtOH at a concentration of 5 mM.
[^3H]R(+)-7-OH-DPAT Binding Assays.
[^3H]R-(+)-7-OH-DPAT binding assays for the D3 dopamine receptors were performed as previously described in detail.^(44),(45) Rat ventral striatum (nucleus accumbens and olfactory tubercles) was prepared in assay buffer (50 mM Tris, 1 mM EDTA; pH 7.4 at 23° C.) to yield a final concentration of 10 mg original wet weight (o.w.w.)/ml. […] Nonspecific binding was defined by 1 μM spiperone. Assay tubes were incubated at 23° C. for 90 min. The reaction was terminated by rapid vacuum filtration.

[3] = target: T2, D3 receptor (Rattus norvegicus, UniProt P19020); assay: Induction of yawning behavior in rats; type: in vivo; conditions: for Emax: rat, read-out: Increase in yawning relative to maximum effect of pramipexole at 0.1 mg/kg, doses between 0.0032 and 3.2 mg/kg; for Emax / Lowest dose active (significant increase in yawning): rats; for Lowest dose active (significant increase in yawning): s.c., yawns/60 min; for In vivo functional activity at the D3 receptor: yawning assays in rats
T2 construct: evaluated for the effect in the induction of yawning and hypothermia in rats; tissue Harlan; Indianapolis, Ind; host or cells: living male Sprague-Dawley rats
T2 sequence (P19020 whole entry): as above
Experimental: as §1
Yawning behavior was defined as a prolonged (˜1 sec.), wide opening of the mouth followed by a rapid closure. On the day of testing, rats were transferred from their home cage to a test chamber (48 cm×23 cm×20 cm clear rodent cage with standard cob bedding), and allowed to habituate to the chamber for a period of 30 min prior to a sterile water injection which was administered 30 min prior to the injection of the compound of interest. Yawns were scored for a period of 60 min thereafter. Each compound was assessed in groups of 6 rats, with each rat receiving a single dose of one compound. Food and water were unavailable during test sessions, and all experiments were conducted between the hours of 12:00 PM and 6:00 PM with at least 72 hrs between test sessions to allow for drug washout.
as §3

[4] = Solubility in water; type: physicochemical
[5] = target: T3, D2 receptor (Rattus norvegicus, UniProt P61169); assay: Hypothermia assay (core body temperature) in rats; type: in vivo; conditions: 10.0 mg/kg s.c.
T3 construct: evaluated for the effect in the induction of yawning and hypothermia in rats; tissue Harlan; Indianapolis, Ind; host or cells: living male Sprague-Dawley rats
T3 sequence (P61169 whole entry): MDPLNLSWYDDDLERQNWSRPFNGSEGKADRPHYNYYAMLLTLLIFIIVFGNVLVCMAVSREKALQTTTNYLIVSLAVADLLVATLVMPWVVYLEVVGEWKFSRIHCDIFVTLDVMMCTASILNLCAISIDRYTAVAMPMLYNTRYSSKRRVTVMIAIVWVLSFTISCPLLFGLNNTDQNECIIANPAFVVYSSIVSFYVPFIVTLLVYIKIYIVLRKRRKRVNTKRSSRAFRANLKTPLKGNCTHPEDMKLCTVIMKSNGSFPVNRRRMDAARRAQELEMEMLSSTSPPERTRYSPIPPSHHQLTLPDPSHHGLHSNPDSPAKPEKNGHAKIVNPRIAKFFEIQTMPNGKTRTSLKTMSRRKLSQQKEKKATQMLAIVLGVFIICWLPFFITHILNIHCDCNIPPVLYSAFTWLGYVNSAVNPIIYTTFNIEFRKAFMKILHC
Experimental: as §1
Rats were anesthetized with ketamine/xylazine (100/10 mg/kg; i.p.) and their abdominal area was shaved and cleaned with alternating betadine and alcohol swabs prior to surgical implantation of radio-telemetric probes (E-4000 E-Mitter, Mini-Mitter, Bend, Oreg., USA). […]
On the day of testing, rats were weighed and returned to their home cages, which were placed onto a receiving pad (ER-4000 Receiver, Mini-mitter, Bend, Oreg.) to allow for the collection of core body temperature. Temperature measurements were taken every min with at least 30 min of baseline temperature data recorded prior to the administration of antagonist or vehicle. Agonist or vehicle injections were administered 30 min thereafter, and core body temperature was recorded for a period of at least the next 60 min. […]

[6] = target: T3, D2 receptor; assay: Effect on pramipexole-induced hypothermia in rats; type: in vivo; conditions: pretreatment 10.0 mg/kg; pramipexole 1.0 mg/kg
Experimental: as §1, §2, §3

Ki [2] | Selectivity D1-like/D3 [2] | Selectivity D2-like/D3 [2] | SMILES | further results
1.3 nM | 27,041 | 345 | CCCN(CCC1CCC(NC(=O)c2ccc(-c3noc(C)n3)cc2)CC1)C1CCc2nc(N)sc2C1 (stereo in doubt) [Compound 33, Trans-N-(4-2-(((s)-2-amino-4,5,6,7-tetrahydrobenzo[d]thiazol-6-yl)(propyl)amino)ethylcyclohexyl)-4-(5-methyl-1,2,4-oxadiazol-3-yl)benzamide] | 
0.73 nM |  | 494 | CCCN(CCC1CCC(NC(=O)c2cccc(-c3noc(C)n3)c2)CC1)C1CCc2nc(N)sc2C1 (stereo in doubt) [Compound 38, Trans-N-(4-2-(((s)-2-amino-4,5,6,7-tetrahydrobenzo[d]thiazol-6-yl)(propyl)amino)ethylcyclohexyl)-3-(5-methyl-1,2,4-oxadiazol-3-yl)benzamide] | Emax [3]: 25%; Lowest dose active (significant increase in yawning) [3]: 3.2 µg/kg; In vivo functional activity at the D3 receptor [3]: partial agonists at the D3 receptor; solubility [4]: > 100 mg/mL; Induction of hypothermia [5]: significant effect in induction of hypothermia; Effect on yawning induced by 0.1 mg/kg pramipexole [1]: effectively inhibited; Effect on hypothermic effects of pramipexole [6]: slight, but significant reductions
1.5 nM | 3,448 | 339 | CCCN(CCC1CCC(NC(=O)c2cccc(-c3noc(CC)n3)c2)CC1)C1CCc2nc(N)sc2C1 (single isomer, unassigned) [Compound 37] | 
2.1 ± 0.15 nM | 8,381 |  | CCCN(CCC1CCC(NC(=O)c2ccc(-c3noc(CC)n3)cc2)CC1)C1CCc2nc(N)sc2C1 (stereo in doubt) [Compound 34, Trans-N-(4-2-(((s)-2-amino-4,5,6,7-tetrahydrobenzo[d]thiazol-6-yl)(propyl)amino)ethylcyclohexyl)-4-(5-ethyl-1,2,4-oxadiazol-3-yl)benzamide] | 
3.5 ± 0.57 nM | 3,245 |  | CCCN(CCC1CCC(NC(=O)c2ccc(-c3noc(C4CC4)n3)cc2)CC1)C1CCc2nc(N)sc2C1 (single isomer, unassigned) [Compound 36] | 
2 ± 0.19 nM | 5,366 |  | CCCN(CCC1CCC(NC(=O)c2ccc(-c3noc(C(C)C)n3)cc2)CC1)C1CCc2nc(N)sc2C1 (single isomer, unassigned) [Compound 35] | 

Second part, the compound before the results:

SMILES | Ki [2] | Selectivity D1-like/D3 [2] | Selectivity D2-like/D3 [2] | further results
N#Cc1ccc2c(c1)CCN(CCC1CCC(NC(=O)c3ccnc4ccccc34)CC1)C2 (stereo not drawn) [SB-277011A, reference compound] |  |  |  | Effect on yawning at […] pramipexole [1]: inhibited the induction of yawning; Effect on yawning induced by 0.1 mg/kg pramipexole [1]: inhibited the induction of yawning
CCCN(CCC1CCC(NS(=O)(=O)c2ccc(OC)cc2)CC1)C1CCc2nc(N)sc2C1 (stereo in doubt) [Compound 44, Trans-N-(4-2-(((s)-2-amino-4,5,6,7-tetrahydrobenzo[d]thiazol-6-yl)(propyl)amino)ethylcyclohexyl)-4-methoxybenzenesulfonamide] | 0.78 nM | 27,487 | 49 | 
CCCN(CCC1CCC(NS(=O)(=O)c2ccc(Cl)cc2)CC1)C1CCc2nc(N)sc2C1 (stereo in doubt) [Compound 46, Trans-N-(4-2-(((s)-2-amino-4,5,6,7-tetrahydrobenzo[d]thiazol-6-yl)(propyl)amino)ethylcyclohexyl)-4-chlorobenzenesulfonamide] | 0.95 ± 0.01 nM | 8,754 | 75 | 
OC1(c2ccc(Cl)cc2)CCN(Cc2c[nH]c3ccccc23)CC1 [L-741,626, reference compound] |  |  |  | Effect on yawning at […] pramipexole [1]: reversed the inhibition of yawning; Effect on yawning induced by 0.1 mg/kg pramipexole [1]: failed to alter the induction of yawning
CCCN(CCC1CCC(NS(=O)(=O)c2ccc(Cl)nc2)CC1)C1CCc2nc(N)sc2C1 (stereo in doubt) [Compound 51, Trans-N-(4-2-(((s)-2-amino-4,5,6,7-tetrahydrobenzo[d]thiazol-6-yl)(propyl)amino)ethylcyclohexyl)-6-chloropyridine-3-sulfonamide] | 0.63 ± 0.04 nM | 12,933 |  | 
CCCN(CCC1CCC(NS(=O)(=O)c2cccc(Cl)c2)CC1)C1CCc2nc(N)sc2C1 (stereo in doubt) [Compound 45, Trans-N-(4-2-(((s)-2-amino-4,5,6,7-tetrahydrobenzo[d]thiazol-6-yl)(propyl)amino)ethylcyclohexyl)-3-chlorobenzenesulfonamide] | 1.1 ± 0.1 nM |  |  | 
CCCN(CCC1CCC(NS(=O)(=O)c2cnccc2Cl)CC1)C1CCc2nc(N)sc2C1 (stereo in doubt) [Compound 53, Trans-N-(4-2-(((s)-2-amino-4,5,6,7-tetrahydrobenzo[d]thiazol-6-yl)(propyl)amino)ethylcyclohexyl)-4-chloropyridine-3-sulfonamide] | 0.93 nM |  |  | 
CCCN(CCC1CCC(NS(=O)(=O)c2ccccc2Cl)CC1)C1CCc2nc(N)sc2C1 (stereo in doubt) [Compound 47, Trans-N-(4-2-(((s)-2-amino-4,5,6,7-tetrahydrobenzo[d]thiazol-6-yl)(propyl)amino)ethylcyclohexyl)-2-chlorobenzenesulfonamide] | 0.68 ± 0.06 nM |  |  | 
CCCN(CCC1CCC(NS(=O)(=O)c2cccnc2Cl)CC1)C1CCc2nc(N)sc2C1 (stereo in doubt) [Compound 52, Trans-N-(4-2-(((s)-2-amino-4,5,6,7-tetrahydrobenzo[d]thiazol-6-yl)(propyl)amino)ethylcyclohexyl)-2-chloropyridine-3-sulfonamide] | 0.38 nM |  | 451 | Emax [3]: 25%; Lowest dose active (significant increase in yawning) [3]: 3.2 µg/kg; In vivo functional activity at the D3 receptor [3]: partial agonists at the D3 receptor; Induction of hypothermia [5]: significant effect in induction of hypothermia; Effect on yawning induced by 0.1 mg/kg pramipexole [1]: effectively inhibited; Effect on hypothermic effects of pramipexole [6]: slight, but significant reductions
CCCN(CCC1CCC(NS(=O)(=O)c2cccc(F)c2)CC1)C1CCc2nc(N)sc2C1 (stereo in doubt) [Compound 43, Trans-N-(4-2-(((s)-2-amino-4,5,6,7-tetrahydrobenzo[d]thiazol-6-yl)(propyl)amino)ethylcyclohexyl)-3-fluorobenzenesulfonamide] | 0.72 nM |  |  | 

From patent US8486981B2, “Selective ligands for the dopamine 3 (D3) receptor and methods of using the same” (The Regents of the University of Michigan, priority 2011, dated 2013)
